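The compound was tested at five concentrations on cells cultured in 96-well plates, with a 48-hour exposure period. TGI denotes the concentration required for complete inhibition of growth.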 Where a SMILES comes first, the peptide text is derived from it. [ ]: non-standard residue; d: D form. ΔPro = O=C(O)[CH]1C=CCN1 Bounds are passed on as bounds.

Test systems include NCI-H522 lung; PC-3 prostate; M14 melanoma; IGROV1 ovarian; MALME-3M melanoma; T-47D breast; CCRF-CEM leukemia; MCF7 breast; HT29 colon; ACHN renal; OVCAR-4 ovarian; HCC-2998 colon; KM12 colon; SNB-19 CNS.
Holding throughout (experiment): growth of human tumour cells (NCI), 48 h

Regarding `CC(=O)NS(=O)(=O)c1ccc(NCc2cccc3c(=O)c4ccc(Cl)cc4oc23)cc1`, the TGI with NCI-H522 lung was over 83.8 µM; in the assay with PC-3 prostate it was over 86.2 µM; in the assay on M14 melanoma it was over 100 µM; in the assay with IGROV1 ovarian it was over 100 µM; in the assay on MALME-3M melanoma, over 93.5 µM; in the assay on T-47D breast, over 100 µM. Besides, the TGI with CCRF-CEM leukemia is over 86.7 µM; in the assay with MCF7 breast, over 100 µM; with HT29 colon, over 100 µM; in the assay on ACHN renal, over 100 µM; in the assay on OVCAR-4 ovarian, over 100 µM; in the assay with HCC-2998 colon, over 100 µM. Besides, the TGI with KM12 colon and in the assay on SNB-19 CNS was over 100 µM in each case.

In the case of `O=C1C=C(c2ccccc2)OC1C1Sc2ccccc2NC1=O` (stereo unspecified), the TGI was 33.8 µM in the assay with NCI-H522 lung; over 54.9 µM with PC-3 prostate; 35.6 µM with M14 melanoma; over 100 µM in the assay on IGROV1 ovarian; over 100 µM in the assay with MALME-3M melanoma; over 100 µM in the assay on T-47D breast. For the same molecule, the TGI with CCRF-CEM leukemia was over 24.4 µM; in the assay on MCF7 breast, over 23.6 µM; in the assay on HT29 colon, over 100 µM; in the assay on ACHN renal, over 62.6 µM; in the assay with OVCAR-4 ovarian it was over 100 µM; with HCC-2998 colon, over 31.3 µM. The TGI in the assay on KM12 colon is over 100 µM; with SNB-19 CNS it was over 82.8 µM.

With `Cn1c(=O)c2ccccc2[n+]2c(-c3cccc([N+](=O)[O-])c3)csc12`, the TGI with NCI-H522 lung, in the assay on PC-3 prostate, in the assay with M14 melanoma, with IGROV1 ovarian, in the assay on MALME-3M melanoma and in the assay on T-47D breast was over 100 µM in each case. The TGI with CCRF-CEM leukemia, in the assay with MCF7 breast, in the assay with HT29 colon, with ACHN renal, in the assay on OVCAR-4 ovarian and with HCC-2998 colon was over 100 µM throughout. Moreover, the TGI with KM12 colon and in the assay on SNB-19 CNS was over 100 µM in each case.

With `CCN(CC)C1Oc2cc3c(cc2C(c2cc(OC)c(O)c(OC)c2)C1C)OCO3` (stereo unspecified), the TGI is 11 µM in the assay on NCI-H522 lung; over 75.1 µM in the assay with PC-3 prostate; 20.4 µM with M14 melanoma; 50 µM in the assay with IGROV1 ovarian; 30 µM in the assay on MALME-3M melanoma; over 73.4 µM in the assay on T-47D breast. Also, the TGI in the assay with CCRF-CEM leukemia is 42.1 µM; in the assay on MCF7 breast, 27.3 µM; in the assay on HT29 colon, 22.2 µM; in the assay with ACHN renal, over 100 µM; in the assay with OVCAR-4 ovarian, over 82.2 µM; with HCC-2998 colon it was 21.4 µM. Also, the TGI is 22.5 µM in the assay on KM12 colon and 44.2 µM in the assay with SNB-19 CNS.

As to `Cn1nnc2c(C(N)=S)ncn2c1=O`, the TGI in the assay with NCI-H522 lung, with PC-3 prostate, with M14 melanoma, in the assay with IGROV1 ovarian, in the assay with MALME-3M melanoma and in the assay on T-47D breast was over 100 µM in each case. Moreover, the TGI with CCRF-CEM leukemia, in the assay on MCF7 breast, in the assay on HT29 colon, in the assay on ACHN renal, in the assay on OVCAR-4 ovarian and in the assay with HCC-2998 colon was over 100 µM in each case. The TGI in the assay with KM12 colon and in the assay with SNB-19 CNS was over 100 µM in each case.

As for `O=C(O)C1C=CCN1C(=O)C1C=CCN1C(=O)C1C=CCN1` (stereo unspecified) (H-[ΔPro]-[ΔPro]-[ΔPro]-OH; configuration not given here), the TGI in the assay with NCI-H522 lung, with PC-3 prostate, in the assay with M14 melanoma, with IGROV1 ovarian, in the assay with MALME-3M melanoma and with T-47D breast was over 100 µM each time. Besides, the TGI in the assay on CCRF-CEM leukemia, in the assay on MCF7 breast, in the assay with HT29 colon, with ACHN renal, in the assay with OVCAR-4 ovarian and in the assay with HCC-2998 colon was over 100 µM throughout. For the same molecule, the TGI with KM12 colon and in the assay with SNB-19 CNS was over 100 µM each time.

In the case of `O[C@@]1(C#Cc2ccc3c(c2)OCO3)CCC[C@H]1NCc1ccccc1`, the TGI with NCI-H522 lung came out at 29.8 µM; with PC-3 prostate it was 51.3 µM; in the assay with M14 melanoma, 29.2 µM; in the assay with IGROV1 ovarian it was 46.9 µM; in the assay on MALME-3M melanoma it was 29.6 µM; in the assay with T-47D breast it was 41.2 µM. Further, the TGI in the assay with CCRF-CEM leukemia was 99.7 µM; with MCF7 breast, 55.3 µM; with HT29 colon, 44.9 µM; in the assay with ACHN renal it was over 100 µM; in the assay on OVCAR-4 ovarian, over 100 µM; with HCC-2998 colon, 32.2 µM. For the same molecule, the TGI in the assay with KM12 colon came to 42.7 µM; with SNB-19 CNS, 68.4 µM.

As to `C=C(COCO)C(C)=O`, the TGI in the assay on NCI-H522 lung is 3.75 µM; with PC-3 prostate, 34.8 µM; in the assay with M14 melanoma, 26.8 µM; with IGROV1 ovarian, 35.9 µM; in the assay with MALME-3M melanoma, 23.5 µM; in the assay with T-47D breast it was 36.7 µM. Besides, the TGI is 9.64 µM in the assay on CCRF-CEM leukemia; 34.5 µM in the assay on MCF7 breast; 35 µM in the assay with HT29 colon; 29.2 µM with ACHN renal; 37.2 µM in the assay with OVCAR-4 ovarian; over 58.4 µM in the assay on HCC-2998 colon. The results for the TGI in the assay on KM12 colon and in the assay on SNB-19 CNS were over 54.5 µM and over 100 µM, respectively.

On to `CC1(C)CC[C@]2(C(=O)O)CC[C@]3(C)C(=CCC4=C5C[C@H](O)[C@H](O)[C@@](C)(CO)[C@@]5(C)CC[C@]43C)[C@@H]2C1`, for which the TGI in the assay with NCI-H522 lung is over 100 µM; in the assay with PC-3 prostate, over 100 µM; in the assay with M14 melanoma, over 100 µM; in the assay with IGROV1 ovarian, over 100 µM; in the assay on MALME-3M melanoma, over 100 µM; in the assay on T-47D breast, 89.5 µM. The TGI with CCRF-CEM leukemia was over 100 µM; with MCF7 breast, over 100 µM; with HT29 colon, over 100 µM; in the assay with ACHN renal, over 100 µM; with OVCAR-4 ovarian it was 71.4 µM; in the assay with HCC-2998 colon, 64.1 µM. The TGI in the assay with KM12 colon and with SNB-19 CNS was over 100 µM each time.

Values taken from PubChem BioAssay (NCI).
